{"source": "patent US11254671B2", "about": "“Chemical compounds” (GLAXOSMITHKLINE INTELLECTUAL PROPERTY DEVELOPMENT LIMITED, priority 2017, dated 2022)", "note": "Several values for one entry are separate records, joined by “and”; a condition that tells them apart may be missing. Identical values can stand only once.", "data": [{"target": "T1, mTOR (Homo sapiens, UniProt P42345)", "T1 construct": "capturing of endogenously expressed target proteins from cell extracts by a bead-immobilized capturing ligand; endogenous in cells; host or cells: HuT-78 cells (ECACC 88041901), cell lysate", "experiment": "mTOR kinobeads assay (competition-binding assay)", "details": "HuT-78 cell extract, endogenously expressed mTOR, bead-immobilized capturing ligand; mean of multiple experiments; read-out: mean pIC50, affinity for mTOR (converted)", "procedure,_shortened": "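Competition binding of endogenous mTOR from HuT-78 cell lysate (250 μg, 5 mg/ml) to immobilized Compound A/C beads, 2 h at 4 °C, pH 7.5, 2% DMSO, 11-point series. Bead-bound mTOR eluted, dot-blotted, detected by anti-mTOR infrared immunofluorescence; normalized to DMSO and 100 μM Compound B controls, 4-parameter fit to pIC50.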", "values": [{"smiles": "CNCc1cc2nc(-c3cc(CS(C)(=O)=O)cc(N4CC5CCC(C4)O5)n3)ccc2[nH]1", "note": "[Example 25, ({5-[4-(methanesulfonylmethyl)-6-{8-oxa-3-azabicyclo[3.2.1]octan-3-yl}pyridin-2-yl]-1H-pyrrolo[3,2-b]pyridin-2-yl}methyl)(methyl)amine]", "IC50": "2.51 to 31.6 nM and 2.51 to 316 nM"}, {"smiles": "CC[C@H]1COCCN1c1cc(C(C)(C)S(C)(=O)=O)cc(-c2ccc3[nH]c(CO)cc3n2)n1", "note": "[Example 32]", "IC50": "2.51 to 31.6 nM and 2.51 to 316 nM"}, {"smiles": "CNCc1cc2nc(-c3cc(C4(S(C)(=O)=O)CCOCC4)cc(N4C5CCC4COC5)n3)ccc2[nH]1", "note": "[Example 40, ({5-[4-(4-methanesulfonyloxan-4-yl)-6-{3-oxa-8-azabicyclo[3.2.1]octan-8-yl}pyridin-2-yl]-1H-pyrrolo[3,2-b]pyridin-2-yl}methyl)(methyl)amine]", "IC50": "2.51 to 316 nM"}, {"smiles": "CC[C@H]1COCCN1c1cc(CS(C)(=O)=O)cc(-c2ccc3[nH]c(CNC)cc3n2)n1", "note": "[Example 13, (S)-1-(5-(6-(3-ethylmorpholino)-4-((methylsulfonyl)methyl)pyridin-2-yl)-1H-pyrrolo[3,2-b]pyridin-2-yl)-N-methylmethanamine]", "IC50": "2.51 to 31.6 nM and 2.51 to 316 nM"}]}]}
